# Assay results from US10028961B2, “Therapeutically active compounds and their methods of use” (AGIOS PHARMACEUTICALS, INC., priority 2013, dated 2018).
# Like-named read-outs stand apart in the source and are kept apart here.
# Experiments:
# [1] = target: IDH1 wt/IDH1 R132H heterodimer (Homo sapiens (Human), UniProt O75874, R132H); experiment: In vitro assay for IDH1m R132H inhibitors, IDH1 wt/IDH1 R132H heterodimer, NADPH depletion (diaphorase/resazurin); assay type: biochemical
# Summary of the method: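 Purified IDH1wt-his/IDH1R132H-flag heterodimer (sf9 co-expression) pre-incubated 1 hr at room temperature with compound and NADPH before α-KG addition. Remaining NADPH read by diaphorase/resazurin conversion to fluorescent resorufin, 5 min at 25° C. Compounds diluted 1:50 from DMSO; IC50 determined.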
# [2] = target: IDH1 wt/IDH1 R132C heterodimer (Homo sapiens (Human), UniProt O75874, R132C); experiment: In vitro assay for IDH1m R132C inhibitors, IDH1 wt/IDH1 R132C heterodimer, NADPH depletion (diaphorase/resazurin); assay type: biochemical; conditions: NADPH/NADP
# Experimental: The following describes the experimental procedures that can be used to obtain data on columns 2 and 4 of Table 4 and column 2 of Table 5.
# In the primary reaction, the reduction of α-KG acid to 2-HG is accompanied by a concomitant oxidation of NADPH to NADP. The amount of NADPH remaining at the end of the reaction time is measured in a secondary diaphorase/resazurin reaction in which the NADPH is consumed in a 1:1 molar ratio with the conversion of resazurin to the highly fluorescent resorufin.
# The mixture of compound, enzyme, and cofactor is pre-incubated at room temperature for 1 hr prior to the addition of alpha-ketoglutarate. To perform the secondary reaction, 10 uL of 1× buffer containing 36 μg/ml diaphorase and […] resazurin is added to the primary reaction and incubated for a further 5 minutes at 25° C. Florescence is read on a Spectramax platereader at Ex 544 Em 590. Compounds or compound dilutions are prepared in 100% DMSO concentration and diluted 1:50 into the final reaction. […] IC50s are determined.
# IDH1 or IDH2 wildtype (wt) and mutant heterodimers are expressed and purified by methods known in the art. For example, IDH1wt/R132m heterodimer is expressed and purified as follows. Co-expression of IDH1wt-his and IDH1R132C-flag is carried out in sf9 insect cells. Cells (25 g) are resuspended in 250 ml of 50 mM Tirs, 500 mM NaCl, pH7.4, at 4° C. with stirring. Cells are disrupted with 4 passes through an M-Y110 Micro fluidizer (Microfluidics) set to 500 psi, and then centrifuged at 22,000 rcf for 20 min at 4° C. The supernatant is harvested and loaded at 15 cm/h on a Histrap FF 5*1 ml column (GE) which is equilibrated with 50 mM Tirs, 500 mM NaCl, pH7.4. Host cell contaminants are removed by washing the column with equilibration buffer followed by equilibration buffer containing 20 mM imidazole and 60 mM imidazole to baseline. IDH1wt-his homodimer and IDH1wt-his/IDH1R132C-flag are eluted by equilibration buffer containing 250 mM imidazole. Fractions eluted by 250 mM imidazole are pooled together and loaded at 15 cm/h onto a column pre-packed with 10 ml ANTI-FLAG® M2 Affinity Gel (Sigma), the column is equilibrated with 50 mM Tris, 500 mM NaCl, pH7.4. After washing with equilibration buffer, IDH1wt-his/IDH1R132C-flag heterodimer is eluted by equilibration buffer containing flag peptide (0.2 mg/ml). Aliquots of IDH1wt-his/IDH1R132C-flag are flash frozen in liquid N2 and stored at −80° C. Same conditions are used for the purification of IDH1wt-his/IDH1R132H-flag.
# [3] = target: IDH1-R132H homodimer enzyme (Homo sapiens (Human), UniProt O75874, R132H); experiment: In vitro assay IDH1-R132H homodimer, NADPH depletion assay with NADPH/NADP preincubation; assay type: biochemical; conditions: 5 μM NADPH and 37.5 μM NADP
# Summary of the method: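 Conversion of alpha-ketoglutarate to 2-hydroxyglutarate tracked by NADPH depletion. Reaction started with 5 mM alpha-ketoglutarate plus NADPH substrate mix (50 μl total), 60 min at room temperature. Leftover NADPH quantified via diaphorase/resazurin fluorescence.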
# [4] = target: T1, IDH2 R140Q (Homo sapiens (Human), UniProt P48735, R140Q); experiment: In vitro assay for IDH2m R140Q inhibitors, cofactor depletion assay; assay type: biochemical; conditions: IDH2 R140Q enzyme
# Summary of the method: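 Remaining cofactor measured fluorimetrically: diaphorase/resazurin Stop Mix […], halting the reaction. Before that, mutant enzyme and compound sat 1 h at RT, then substrate mix (4 μM NADPH, 1.6 mM α-KG) was added for 16 h at RT.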
# [5] = target: T1, IDH2 R140Q; experiment: In vitro assay for IDH2m R140Q inhibitors, cofactor depletion assay, 16 hr preincubation with NADPH/NADP; assay type: biochemical; conditions: read-out: IDH2 R140Q 16 hr NADPH/NADP IC50; 16 hrs preincubation with enzyme, 5 uM NADPH and 750 uM NADP
# Description: The following describes the experimental procedures used to obtain data on column 6 of Table 5.
# The reaction is terminated by the addition of a second enzyme, diaphorase, and a corresponding substrate, resazurin. Diaphorase reduces resazurin to the highly fluorescent resorufin with the concomitant oxidation of NADPH to NADP, both halting the IDH2 reaction by depleting the available cofactor pool and facilitating quantitation of the amount of cofactor remaining after a specific time period through quantitative production of an easily detected fluorophore.
# The test compound is then incubated for 16 hrs at room temperature with the enzyme and cofactors before starting the IDH2 reaction with the addition of 10 μl of substrate mix containing 8 mM α-KG (final concentration 1.6 mM) in the buffer described above. After a further 1 hour of incubation at room temperature, the reaction is halted and the remaining NADPH measured through conversion of resazurin to resorufin by the addition of 25 μl Stop Mix (36 μg/ml diaphorase enzyme and 60 μM resazurin; in buffer).
# [6] = system: U87MG pLVX-IDH2 R140Q-neo cells; experiment: U87MG pLVX-IDH2 R140Q-neo cell based assay, 2-HG by LC-MS; conditions: Homo sapiens, U-87 MG
# [7] = target: IDH1-R132C homodimer enzyme (Homo sapiens (Human), UniProt O75874, R132C); experiment: In vitro assay IDH1-R132C homodimer, NADPH depletion assay with NADPH/NADP preincubation; assay type: biochemical; conditions: 5 uM NADPH and 28.75 uM NADP, read-out: IDH R132C NADPH/NADP IC50
# Experimental: The following describes the experimental procedures that can be used to obtain data on columns 3 and 5 of Table 5.
# A test compound is prepared as 10 mM stock in DMSO and diluted to 50× final concentration in DMSO, for a 50 μl reaction mixture. IDH enzyme activity converting alpha-ketoglutarate to 2-hydroxyglutaric acid is measured using a NADPH depletion assay. In the assay the remaining cofactor is measured at the end of the reaction with the addition of a catalytic excess of diaphorase and resazurin, to generate a fluorescent signal in proportion to the amount of NADPH remaining. […] The reaction is started with the addition of 10 μl of Substrate Mix ([…], 5 mM alpha-ketoglutarate, in Assay Buffer) and the mixture is incubated for 60 minutes at room temperature.
# The concentration of alpha-ketoglutarate in the Substrate Buffer is 1 mM.
# [8] = system: Neurosphere cells (TS603); experiment: Cellular assay for IDH1m R132H inhibitors, 2-HG by LC-MS in neurosphere cells (TS603); assay type: cell-based; conditions: 2-HG in media at 48 hours
# Summary of the method: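 TS603 neurosphere cells in NeuroCult medium were dosed with compound (0.25% DMSO final) at 37 C, 5% CO2. After 48 hours, medium 2-HG was measured by LC-MS. At 72 hours, viability was read by CellTiter-Glo luminescence.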
# [9] = IDH1 wt/R132H heterodimer, NADPH/NADP, not saturated, read-out: IDH1 wt/R132H NADPH/NADP IC50 not saturated
# [10] = IDH1 wt/IDH1 R132H heterodimer, 300 μM NADP (saturated), read-out: IDH1 wt/R132H NADPH/NADP IC50 saturated
# Chain of IDH1-R132H homodimer enzyme (O75874 whole entry R132H): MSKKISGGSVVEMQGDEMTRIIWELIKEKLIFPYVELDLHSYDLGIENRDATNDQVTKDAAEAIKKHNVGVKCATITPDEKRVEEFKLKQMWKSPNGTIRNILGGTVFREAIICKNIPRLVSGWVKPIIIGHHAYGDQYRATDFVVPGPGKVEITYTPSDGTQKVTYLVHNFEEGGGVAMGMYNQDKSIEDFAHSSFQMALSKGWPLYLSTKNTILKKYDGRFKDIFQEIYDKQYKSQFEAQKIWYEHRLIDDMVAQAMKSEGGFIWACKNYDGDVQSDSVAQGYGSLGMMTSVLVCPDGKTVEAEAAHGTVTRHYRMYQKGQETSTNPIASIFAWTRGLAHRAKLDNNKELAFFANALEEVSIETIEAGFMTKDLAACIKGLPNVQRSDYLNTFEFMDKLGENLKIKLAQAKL
# Chain of IDH1 wt/IDH1 R132H heterodimer (O75874 whole entry R132H): as above
# Chain of IDH1 wt/IDH1 R132H heterodimer (O75874 whole entry, stated change not applied): as the sequence (O75874 whole entry R132H) above, with H132R counted along it
# Chain of IDH1-R132C homodimer enzyme (O75874 whole entry R132C): as the sequence (O75874 whole entry R132H) above, with H132C counted along it
# Chain of IDH1 wt/IDH1 R132C heterodimer (O75874 whole entry R132C): as the sequence (O75874 whole entry R132H) above, with H132C counted along it
# Chain of IDH1 wt/IDH1 R132C heterodimer (O75874 whole entry, stated change not applied): as the sequence (O75874 whole entry R132H) above, with H132R counted along it
# T1 sequence (P48735 40-452 R140Q): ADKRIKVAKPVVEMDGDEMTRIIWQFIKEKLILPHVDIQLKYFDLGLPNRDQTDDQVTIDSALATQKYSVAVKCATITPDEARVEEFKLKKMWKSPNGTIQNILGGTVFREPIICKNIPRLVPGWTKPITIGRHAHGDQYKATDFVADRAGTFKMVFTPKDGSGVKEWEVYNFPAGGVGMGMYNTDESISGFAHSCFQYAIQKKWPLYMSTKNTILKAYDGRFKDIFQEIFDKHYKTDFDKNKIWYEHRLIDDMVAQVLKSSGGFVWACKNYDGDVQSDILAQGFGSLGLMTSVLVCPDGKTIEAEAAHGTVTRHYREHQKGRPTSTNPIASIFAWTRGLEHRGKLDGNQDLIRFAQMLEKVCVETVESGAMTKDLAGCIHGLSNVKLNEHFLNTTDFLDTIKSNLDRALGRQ
Compound,"IC50 [1, 9]",IC50 [2],IC50 [3],IC50 [4],IC50 [5],IC50 [6],"IC50 [1, 10]",IC50 [7],IC50 [8]
CC(C)(C)Nc1nc(Nc2ccnc(C(C)(F)F)c2)nc(-c2nccc(C(F)(F)F)n2)n1 [Compound 289],100 to 1000 nM,≥ 1000 nM,> 1000 nM,< 50 nM,50 to 100 nM,< 50 nM,–,–,–
C[C@@H](Nc1nc(NCC(C)(C)C#N)nc(-c2cccc(C(F)(F)F)n2)n1)C1CC1 [Compound 262],100 to 1000 nM,100 to 1000 nM,> 1000 nM,–,100 to 1000 nM,–,–,–,–
CC(COC(C)C)Nc1nc(N[C@H](C)C2CC2)nc(-c2cccc(C(F)(F)F)n2)n1 (some centres unmarked) [Compound 241],< 50 nM,100 to 1000 nM,100 to 1000 nM,–,50 to 100 nM,–,–,–,–
CC(CC#N)Nc1nc(NC(C)CC#N)nc(-c2cccc(Cl)n2)n1 (centres unmarked) [Compound 271],100 to 1000 nM,100 to 1000 nM,100 to 1000 nM,–,100 to 1000 nM,–,–,–,–
N#CC1(c2cc(Nc3nc(N[C@@H]4CCC(F)(F)C4)nc(-n4ccc(C(F)(F)F)n4)n3)ccn2)CC1 [Compound 350],–,–,< 50 nM,< 50 nM,–,< 50 nM,< 50 nM,50 to 100 nM,< 50 nM
FC1(F)CC[C@H](Nc2nc(Nc3ccnc(C(F)(F)F)c3)nc(-c3cccc(C(F)(F)F)n3)n2)C1 [Compound 158],< 50 nM,–,50 to 100 nM,< 50 nM,–,< 50 nM,–,100 to 1000 nM,< 50 nM
FC1(F)CC2(CC(Nc3nc(NC4CC5(C4)CC(F)(F)C5)nc(-c4cccc(Cl)n4)n3)C2)C1 [Compound 265],100 to 1000 nM,100 to 1000 nM,> 1000 nM,–,100 to 1000 nM,–,–,–,–
CC(C)(C)OC(=O)N1CCC(Nc2nc(NC3CCC(F)(F)CC3)nc(-c3cccc(C(F)(F)F)n3)n2)CC1 [Compound 274],100 to 1000 nM,100 to 1000 nM,> 1000 nM,–,100 to 1000 nM,–,–,–,–
FC1(F)CC[C@H](Nc2nc(Nc3ccnc(C(F)(F)F)c3)nc(-n3ccc(C(F)(F)F)n3)n2)C1 [Compound 393],–,–,50 to 100 nM,< 50 nM,–,< 50 nM,< 50 nM,100 to 1000 nM,< 50 nM
FC1(F)CC(Nc2nc(Nc3ccnc(C(F)(F)F)c3)nc(-c3cccc(C(F)(F)F)n3)n2)C1 [Compound 190],< 50 nM,–,100 to 1000 nM,< 50 nM,–,< 50 nM,–,> 1000 nM,< 50 nM
C[C@@H](Nc1nc(NC2C3CC4CC(C3)CC2C4)nc(-c2cccc(C(F)(F)F)n2)n1)C1CC1 (some centres unmarked) [Compound 234],< 50 nM,–,100 to 1000 nM,–,100 to 1000 nM,–,–,–,–
CC(C)(C#N)CNc1nc(Nc2ccnc(C(C)(F)F)c2)nc(-c2cccc(C(F)(F)F)n2)n1 [Compound 267],100 to 1000 nM,100 to 1000 nM,> 1000 nM,< 50 nM,50 to 100 nM,< 50 nM,–,–,–
CC(C)Nc1nc(Nc2ccnc(C(C)(F)F)c2)nc(-c2nccc(C(F)(F)F)n2)n1 [Compound 298],100 to 1000 nM,≥ 1000 nM,> 1000 nM,< 50 nM,50 to 100 nM,< 50 nM,–,–,–
CC(C)(O)CNc1nc(Nc2cccc(Cl)c2)nc(-c2cccc(C(F)(F)F)n2)n1 [Compound 248],50 to 100 nM,100 to 1000 nM,–,100 to 1000 nM,< 50 nM,< 50 nM,–,–,–
C[C@@H](Nc1cc(NC2CCC(F)(F)CC2)nc(-c2cccc(Cl)n2)n1)C(F)(F)F [Compound 418],50 to 100 nM,–,–,–,< 50 nM,–,–,–,–
C[C@@H](Nc1nc(NCCOc2ccccc2)nc(-c2cccc(C(F)(F)F)n2)n1)C1CC1 [Compound 246],50 to 100 nM,50 to 100 nM,100 to 1000 nM,50 to 100 nM,< 50 nM,50 to 100 nM,–,–,–
CC(C)(O)CNc1nc(Nc2cc(F)cc(F)c2)nc(-c2nccc(C(F)(F)F)n2)n1 [Compound 325],> 1000 nM,≥ 1000 nM,–,< 50 nM,50 to 100 nM,< 50 nM,–,–,–
